Laboratory results: PubChem BioAssay (NCI)
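Grown in 96-well plates, cells were treated for 48 hours with each compound at five concentrations. Insufficient inhibition: endpoint recorded as highest concentration tested. The concentration for 50% growth inhibition is given as GI50. TGI: concentration producing complete growth inhibition.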

Legend:
Assay in all cases: inhibition of tumour cell growth, NCI panel, 48 h
[1] = test system: 786-0 renal
[2] = test system: A498 renal
[3] = test system: A549 NSCLC
[4] = test system: ACHN renal
[5] = test system: BT-549 breast
[6] = test system: CAKI-1 renal
[7] = test system: CCRF-CEM leukemia
[8] = test system: COLO 205 colon
[9] = test system: DU-145 prostate
[10] = test system: EKVX NSCLC
[11] = test system: HCC-2998 colon
[12] = test system: HCT-116 colon
[13] = test system: HCT-15 colon
[14] = test system: HL-60(TB) leukemia
[15] = test system: HOP-62 NSCLC
[16] = test system: HOP-92 NSCLC
[17] = test system: HS 578T breast
[18] = test system: HT29 colon
[19] = test system: IGROV1 ovarian
[20] = test system: K-562 leukemia
[21] = test system: KM12 colon
[22] = test system: LOX IMVI melanoma
[23] = test system: M14 melanoma
[24] = test system: MALME-3M melanoma
[25] = test system: MCF7 breast
[26] = test system: MDA-MB-231 breast
[27] = test system: MDA-MB-435
[28] = test system: MOLT-4 leukemia
[29] = test system: NCI-H226 lung
[30] = test system: NCI-H23 lung
[31] = test system: NCI-H460 lung
[32] = test system: NCI-H522 lung
[33] = test system: NCI/ADR-RES ovarian
[34] = test system: OVCAR-3 ovarian
[35] = test system: OVCAR-4 ovarian
[36] = test system: OVCAR-5 ovarian
[37] = test system: OVCAR-8 ovarian
[38] = test system: PC-3 prostate
[39] = test system: RPMI-8226 leukemia
[40] = test system: RXF 393 renal
[41] = test system: SF-268 CNS
[42] = test system: SF-295 CNS
[43] = test system: SF-539 CNS
[44] = test system: SK-MEL-2 melanoma
[45] = test system: SK-MEL-28 melanoma
[46] = test system: SK-MEL-5 melanoma
[47] = test system: SK-OV-3 ovarian
[48] = test system: SN12C renal
[49] = test system: SNB-19 CNS
[50] = test system: SNB-75 CNS
[51] = test system: SR leukemia
[52] = test system: SW-620 colon
[53] = test system: T-47D breast
[54] = test system: TK-10 renal
[55] = test system: U251 CNS
[56] = test system: UACC-257 melanoma
[57] = test system: UACC-62 melanoma
[58] = test system: UO-31 renal

Compound: CC1(C)N=C(N)N=C(N)N1c1ccc(Cl)cc1
- GI50 [1]: 0.414 µM
- TGI [1]: > 100 µM
- GI50 [2]: > 100 µM
- TGI [2]: > 100 µM
- GI50 [3]: 1.25 µM
- TGI [3]: > 100 µM
- GI50 [4]: 9.55 µM
- TGI [4]: > 100 µM
- GI50 [5]: 14.6 µM
- TGI [5]: > 100 µM
- GI50 [6]: > 100 µM
- TGI [6]: > 100 µM
- GI50 [7]: > 100 µM
- TGI [7]: > 100 µM
- GI50 [8]: 21.4 µM
- TGI [8]: > 100 µM
- GI50 [9]: 5.35 µM
- TGI [9]: > 100 µM
- GI50 [10]: 0.763 µM
- TGI [10]: > 100 µM
- GI50 [11]: 2.01 µM
- TGI [11]: 11.1 µM
- GI50 [12]: 0.627 µM
- TGI [12]: > 100 µM
- GI50 [13]: 18.7 µM
- TGI [13]: > 100 µM
- GI50 [14]: > 100 µM
- TGI [14]: > 100 µM
- GI50 [15]: 3.54 µM
- TGI [15]: > 100 µM
- GI50 [16]: > 100 µM
- TGI [16]: > 100 µM
- GI50 [17]: > 100 µM
- TGI [17]: > 100 µM
- GI50 [18]: 1.19 µM
- TGI [18]: > 100 µM
- GI50 [19]: 2.27 µM
- TGI [19]: > 100 µM
- GI50 [20]: 1.3 µM
- TGI [20]: > 100 µM
- GI50 [21]: 6.68 µM
- TGI [21]: > 100 µM
- GI50 [22]: 2.85 µM
- TGI [22]: > 100 µM
- GI50 [23]: 5.52 µM
- TGI [23]: > 100 µM
- GI50 [24]: 16.1 µM
- TGI [24]: > 100 µM
- GI50 [25]: 4.88 µM
- TGI [25]: > 100 µM
- GI50 [26]: > 100 µM
- TGI [26]: > 100 µM
- GI50 [27]: 1.18 µM
- TGI [27]: > 100 µM
- GI50 [28]: 62.3 µM
- TGI [28]: > 100 µM
- GI50 [29]: > 100 µM
- TGI [29]: > 100 µM
- GI50 [30]: 2.51 µM
- TGI [30]: > 100 µM
- GI50 [31]: 2.82 µM
- TGI [31]: > 100 µM
- GI50 [32]: 14.6 µM
- TGI [32]: > 100 µM
- GI50 [33]: > 100 µM
- TGI [33]: > 100 µM
- GI50 [34]: 11.3 µM
- TGI [34]: > 100 µM
- GI50 [35]: 14.9 µM
- TGI [35]: > 100 µM
- GI50 [36]: 0.854 µM
- TGI [36]: > 100 µM
- GI50 [37]: 2.17 µM
- TGI [37]: > 100 µM
- GI50 [38]: 6.07 µM
- TGI [38]: > 100 µM
- GI50 [39]: > 100 µM
- TGI [39]: > 100 µM
- GI50 [40]: 8.09 µM
- TGI [40]: > 100 µM
- GI50 [41]: 0.688 µM
- TGI [41]: > 100 µM
- GI50 [42]: 2.9 µM
- TGI [42]: 9.94 µM
- GI50 [43]: 1.94 µM
- TGI [43]: > 100 µM
- GI50 [44]: > 100 µM
- TGI [44]: > 100 µM
- GI50 [45]: 53.5 µM
- TGI [45]: > 100 µM
- GI50 [46]: 3.99 µM
- TGI [46]: > 100 µM
- GI50 [47]: 43 µM
- TGI [47]: > 100 µM
- GI50 [48]: 7.25 µM
- TGI [48]: > 100 µM
- GI50 [49]: 16.7 µM
- TGI [49]: > 100 µM
- GI50 [50]: 8.16 µM
- TGI [50]: > 100 µM
- GI50 [51]: 20.5 µM
- TGI [51]: > 100 µM
- GI50 [52]: 0.832 µM
- TGI [52]: > 100 µM
- GI50 [53]: > 100 µM
- TGI [53]: > 100 µM
- GI50 [54]: 9.9 µM
- TGI [54]: > 100 µM
- GI50 [55]: 1.19 µM
- TGI [55]: > 100 µM
- GI50 [56]: 75 µM
- TGI [56]: > 100 µM
- GI50 [57]: 4.09 µM
- TGI [57]: > 100 µM
- GI50 [58]: > 100 µM
- TGI [58]: > 100 µM
